Data taken from the kinase profiling compilation of Christmann-Franck et al. (2016).

Tests used:
Assay in all cases: KINOMEscan competition binding
Details in all cases: compound 10.0 µM
AAK1 (human) = AAK1 (human) (UniProt Q2M2I8)
ABL2 (human) = ABL2 (human) (UniProt P42684)
ANKK1 (human) = ANKK1 (human) (UniProt Q8NFD2)
BMPR2 (human) = BMPR2 (human) (UniProt Q13873)
DDR2 (human) = DDR2 (human) (UniProt Q16832)
DMPK (human) = DMPK (human) (UniProt Q09013)
DYRK1B (human) = DYRK1B (human) (UniProt Q9Y463)
EPHA5 (human) = EPHA5 (human) (UniProt P54756)
FYN (human) = FYN (human) (UniProt P06241)
Chain of FYN (human) (P06241 whole entry, looked up): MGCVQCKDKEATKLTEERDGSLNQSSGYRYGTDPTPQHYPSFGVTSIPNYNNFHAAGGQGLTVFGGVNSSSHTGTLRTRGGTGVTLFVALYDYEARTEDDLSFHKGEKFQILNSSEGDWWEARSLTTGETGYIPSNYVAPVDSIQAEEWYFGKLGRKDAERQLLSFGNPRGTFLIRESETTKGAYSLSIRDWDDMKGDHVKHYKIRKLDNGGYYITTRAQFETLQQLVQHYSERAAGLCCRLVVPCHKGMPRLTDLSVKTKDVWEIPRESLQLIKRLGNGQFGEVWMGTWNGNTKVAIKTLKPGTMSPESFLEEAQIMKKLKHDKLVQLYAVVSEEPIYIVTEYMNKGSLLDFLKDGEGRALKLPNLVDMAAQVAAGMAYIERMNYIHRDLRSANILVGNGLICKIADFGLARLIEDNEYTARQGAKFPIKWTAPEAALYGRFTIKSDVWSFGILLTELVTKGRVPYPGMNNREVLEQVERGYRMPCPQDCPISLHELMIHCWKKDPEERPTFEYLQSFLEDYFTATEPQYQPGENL

INSRR (human) = INSRR (human) (UniProt P14616)
MAP2K3 (human) = MAP2K3 (human) (UniProt P46734)
MAP2K6 (human) = MAP2K6 (human) (UniProt P52564)
MAP3K10 (human) = MAP3K10 (human) (UniProt Q02779)
Chain of MAP3K10 (human) (Q02779 whole entry, looked up): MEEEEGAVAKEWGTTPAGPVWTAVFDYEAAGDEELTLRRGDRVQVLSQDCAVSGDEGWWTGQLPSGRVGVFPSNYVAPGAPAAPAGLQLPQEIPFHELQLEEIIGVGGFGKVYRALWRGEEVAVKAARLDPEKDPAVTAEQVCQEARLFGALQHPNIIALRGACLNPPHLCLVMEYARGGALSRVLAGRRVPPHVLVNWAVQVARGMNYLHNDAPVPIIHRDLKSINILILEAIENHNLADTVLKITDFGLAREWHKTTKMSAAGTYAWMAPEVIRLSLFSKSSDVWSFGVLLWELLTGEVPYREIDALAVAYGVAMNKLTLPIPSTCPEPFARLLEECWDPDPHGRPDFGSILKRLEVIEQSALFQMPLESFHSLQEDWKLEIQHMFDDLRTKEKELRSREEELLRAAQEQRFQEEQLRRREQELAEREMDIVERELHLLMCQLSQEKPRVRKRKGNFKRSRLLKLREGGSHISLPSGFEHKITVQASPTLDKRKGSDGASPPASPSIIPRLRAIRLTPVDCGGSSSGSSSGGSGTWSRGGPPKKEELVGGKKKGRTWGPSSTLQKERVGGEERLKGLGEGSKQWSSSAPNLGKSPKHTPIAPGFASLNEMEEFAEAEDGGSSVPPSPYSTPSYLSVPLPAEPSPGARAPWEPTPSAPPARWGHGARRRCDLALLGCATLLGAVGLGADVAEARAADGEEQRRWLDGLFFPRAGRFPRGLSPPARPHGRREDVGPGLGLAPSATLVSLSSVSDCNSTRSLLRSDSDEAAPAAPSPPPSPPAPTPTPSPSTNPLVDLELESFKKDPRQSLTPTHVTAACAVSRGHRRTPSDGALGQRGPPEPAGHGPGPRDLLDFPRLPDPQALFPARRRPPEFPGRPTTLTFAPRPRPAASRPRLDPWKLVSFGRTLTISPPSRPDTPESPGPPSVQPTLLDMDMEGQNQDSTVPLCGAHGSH

MAP3K5 (human) = MAP3K5 (human) (UniProt Q99683)
MAPK14 (human) = MAPK14 (human) (UniProt Q16539)
Chain of MAPK14 (human) (Q16539 whole entry, looked up): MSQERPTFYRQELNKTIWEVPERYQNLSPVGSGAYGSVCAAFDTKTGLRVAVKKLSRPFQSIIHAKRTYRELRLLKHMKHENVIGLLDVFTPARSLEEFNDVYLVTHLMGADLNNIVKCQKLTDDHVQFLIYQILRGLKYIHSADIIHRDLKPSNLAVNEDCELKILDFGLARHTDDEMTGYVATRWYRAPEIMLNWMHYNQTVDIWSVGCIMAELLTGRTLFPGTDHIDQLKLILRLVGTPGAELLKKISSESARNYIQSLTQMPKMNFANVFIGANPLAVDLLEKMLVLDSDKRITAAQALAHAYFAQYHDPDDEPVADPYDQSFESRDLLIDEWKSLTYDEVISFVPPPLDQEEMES

MARK4 (human) = MARK4 (human) (UniProt Q96L34)
MERTK (human) = MERTK (human) (UniProt Q12866)
MET (human) = MET (human) (UniProt P08581)
Chain of MET (human) (P08581 whole entry, looked up): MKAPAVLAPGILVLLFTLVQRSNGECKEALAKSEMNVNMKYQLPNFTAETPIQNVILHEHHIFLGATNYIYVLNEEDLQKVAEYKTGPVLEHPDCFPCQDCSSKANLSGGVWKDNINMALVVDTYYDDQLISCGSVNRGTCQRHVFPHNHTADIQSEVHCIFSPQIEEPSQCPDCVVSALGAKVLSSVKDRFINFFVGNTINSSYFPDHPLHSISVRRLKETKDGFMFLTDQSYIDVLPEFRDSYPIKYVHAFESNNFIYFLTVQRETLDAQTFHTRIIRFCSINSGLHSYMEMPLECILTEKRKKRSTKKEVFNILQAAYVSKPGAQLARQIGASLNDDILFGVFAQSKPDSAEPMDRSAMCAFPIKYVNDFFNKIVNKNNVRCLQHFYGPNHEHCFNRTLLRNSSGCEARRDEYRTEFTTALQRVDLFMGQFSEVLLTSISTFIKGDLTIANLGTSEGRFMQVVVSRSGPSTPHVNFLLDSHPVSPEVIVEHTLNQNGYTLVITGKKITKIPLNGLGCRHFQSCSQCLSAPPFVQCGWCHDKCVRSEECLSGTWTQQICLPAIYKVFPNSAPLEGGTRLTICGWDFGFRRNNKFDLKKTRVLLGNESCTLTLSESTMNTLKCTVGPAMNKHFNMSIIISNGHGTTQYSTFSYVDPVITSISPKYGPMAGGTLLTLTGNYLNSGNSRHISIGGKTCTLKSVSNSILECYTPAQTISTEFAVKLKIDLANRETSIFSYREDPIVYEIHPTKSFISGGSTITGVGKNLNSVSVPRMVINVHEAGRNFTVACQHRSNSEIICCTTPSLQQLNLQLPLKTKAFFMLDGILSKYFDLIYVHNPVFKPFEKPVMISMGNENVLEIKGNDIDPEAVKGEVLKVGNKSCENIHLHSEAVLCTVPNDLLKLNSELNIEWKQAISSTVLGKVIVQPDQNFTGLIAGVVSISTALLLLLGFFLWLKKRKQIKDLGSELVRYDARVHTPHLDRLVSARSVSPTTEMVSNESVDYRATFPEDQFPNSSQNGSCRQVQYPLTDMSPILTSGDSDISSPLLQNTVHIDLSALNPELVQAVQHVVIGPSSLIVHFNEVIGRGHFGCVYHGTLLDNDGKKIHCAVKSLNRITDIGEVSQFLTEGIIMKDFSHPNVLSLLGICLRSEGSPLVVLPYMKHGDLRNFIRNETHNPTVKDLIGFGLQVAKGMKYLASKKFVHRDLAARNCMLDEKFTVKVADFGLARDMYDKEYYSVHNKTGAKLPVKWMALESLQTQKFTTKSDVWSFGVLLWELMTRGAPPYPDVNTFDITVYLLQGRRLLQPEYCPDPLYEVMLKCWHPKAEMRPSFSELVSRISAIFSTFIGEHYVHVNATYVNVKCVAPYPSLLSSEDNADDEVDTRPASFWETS

NEK2 (human) = NEK2 (human) (UniProt P51955)
PLK4 (human) = PLK4 (human) (UniProt O00444)
PRKD1 (human) = PRKD1 (human) (UniProt Q15139)
Chain of PRKD1 (human) (Q15139 whole entry, looked up): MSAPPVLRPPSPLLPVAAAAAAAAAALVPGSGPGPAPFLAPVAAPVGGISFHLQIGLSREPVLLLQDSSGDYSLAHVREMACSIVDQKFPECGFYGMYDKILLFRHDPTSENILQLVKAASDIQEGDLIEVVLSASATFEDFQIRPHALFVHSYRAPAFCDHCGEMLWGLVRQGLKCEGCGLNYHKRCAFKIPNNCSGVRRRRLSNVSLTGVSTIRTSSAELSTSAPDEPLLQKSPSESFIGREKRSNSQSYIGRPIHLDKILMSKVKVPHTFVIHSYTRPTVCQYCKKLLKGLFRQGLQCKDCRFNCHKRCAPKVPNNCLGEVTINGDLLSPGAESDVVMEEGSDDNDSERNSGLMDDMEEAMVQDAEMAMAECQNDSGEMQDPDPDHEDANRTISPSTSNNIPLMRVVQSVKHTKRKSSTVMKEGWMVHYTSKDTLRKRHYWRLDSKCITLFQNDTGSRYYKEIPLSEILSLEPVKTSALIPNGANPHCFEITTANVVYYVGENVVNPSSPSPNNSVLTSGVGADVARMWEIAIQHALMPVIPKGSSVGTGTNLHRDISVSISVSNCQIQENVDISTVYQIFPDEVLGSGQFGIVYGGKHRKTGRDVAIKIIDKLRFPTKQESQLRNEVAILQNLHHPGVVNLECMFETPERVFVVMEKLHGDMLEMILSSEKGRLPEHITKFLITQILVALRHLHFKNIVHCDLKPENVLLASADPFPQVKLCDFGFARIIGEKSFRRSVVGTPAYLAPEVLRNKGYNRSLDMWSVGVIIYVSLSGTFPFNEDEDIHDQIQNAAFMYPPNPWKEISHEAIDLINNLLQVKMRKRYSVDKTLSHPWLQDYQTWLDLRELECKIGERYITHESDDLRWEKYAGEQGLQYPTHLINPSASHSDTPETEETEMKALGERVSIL

RIPK2 (human) = RIPK2 (human) (UniProt O43353)
RPS6KA6 KD2 (human) = RPS6KA6 KD2 (human) (UniProt Q9UK32)
SRC (human) = SRC (human) (UniProt P12931)
SRMS (human) = SRMS (human) (UniProt Q9H3Y6)
STK32B (human) = STK32B (human) (UniProt Q9NY57)
STK38L (human) = STK38L (human) (UniProt Q9Y2H1)
TGFBR1 (human) = TGFBR1 (human) (UniProt P36897)
TLK2 (human) = TLK2 (human) (UniProt Q86UE8)
TNIK (human) = TNIK (human) (UniProt Q9UKE5)
TNNI3K (human) = TNNI3K (human) (UniProt Q59H18)
Chain of TNNI3K (human) (Q59H18 whole entry, looked up): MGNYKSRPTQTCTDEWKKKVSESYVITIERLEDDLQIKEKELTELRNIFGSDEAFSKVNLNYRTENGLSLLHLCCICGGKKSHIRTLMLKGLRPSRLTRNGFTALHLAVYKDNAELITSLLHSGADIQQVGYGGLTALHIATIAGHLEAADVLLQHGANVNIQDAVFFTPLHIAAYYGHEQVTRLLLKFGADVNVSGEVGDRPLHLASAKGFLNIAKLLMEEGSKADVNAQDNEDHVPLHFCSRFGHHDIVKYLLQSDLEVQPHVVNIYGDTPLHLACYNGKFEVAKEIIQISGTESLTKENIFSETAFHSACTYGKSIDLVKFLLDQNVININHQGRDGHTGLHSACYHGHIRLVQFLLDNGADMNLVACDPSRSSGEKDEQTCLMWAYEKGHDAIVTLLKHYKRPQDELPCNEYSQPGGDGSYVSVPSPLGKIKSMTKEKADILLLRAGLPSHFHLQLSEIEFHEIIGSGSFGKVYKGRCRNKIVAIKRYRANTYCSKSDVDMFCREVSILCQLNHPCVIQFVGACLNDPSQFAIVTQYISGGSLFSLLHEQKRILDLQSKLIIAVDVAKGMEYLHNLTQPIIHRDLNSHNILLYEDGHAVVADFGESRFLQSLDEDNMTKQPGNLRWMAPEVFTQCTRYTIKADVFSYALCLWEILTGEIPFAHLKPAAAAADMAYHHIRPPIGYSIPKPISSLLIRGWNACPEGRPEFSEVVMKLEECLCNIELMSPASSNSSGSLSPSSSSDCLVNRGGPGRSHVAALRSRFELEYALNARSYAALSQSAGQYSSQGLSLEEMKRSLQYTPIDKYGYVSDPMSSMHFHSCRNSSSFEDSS

PIK3CD (human) = PIK3CD (human) (UniProt O00329)
TAOK3 (human) = TAOK3 (human) (UniProt Q9H2K8)

kinase still bound, per cent of control (AAK1 (human)) [%] | kinase still bound, per cent of control (ABL2 (human)) [%] | kinase still bound, per cent of control (ANKK1 (human)) [%] | kinase still bound, per cent of control (BMPR2 (human)) [%] | kinase still bound, per cent of control (DDR2 (human)) [%] | kinase still bound, per cent of control (DMPK (human)) [%] | kinase still bound, per cent of control (DYRK1B (human)) [%] | kinase still bound, per cent of control (EPHA5 (human)) [%] | kinase still bound, per cent of control (FYN (human)) [%] | kinase still bound, per cent of control (INSRR (human)) [%] | kinase still bound, per cent of control (MAP2K3 (human)) [%] | kinase still bound, per cent of control (MAP2K6 (human)) [%] | kinase still bound, per cent of control (MAP3K10 (human)) [%] | kinase still bound, per cent of control (MAP3K5 (human)) [%] | kinase still bound, per cent of control (MAPK14 (human)) [%] | kinase still bound, per cent of control (MARK4 (human)) [%] | kinase still bound, per cent of control (MERTK (human)) [%] | kinase still bound, per cent of control (MET (human)) [%] | kinase still bound, per cent of control (NEK2 (human)) [%] | kinase still bound, per cent of control (PLK4 (human)) [%] | SMILES | other results
100 | 0.35 | 100 | 1.1 | 100 | 100 | 100 | 0.85 | 1.4 | 100 | 100 | 100 | 100 | 100 | 14 | 100 | 1.2 | 100 | 100 | 100 | COc1ccc(N(C(=O)Oc2cc(C(=O)Nc3cccc(C(F)(F)F)c3)ccc2C)c2ccnc(Nc3ccc(N4CCN(C)CC4)cc3)n2)c(OC)c1 | kinase still bound, per cent of control (PRKD1 (human)): 100%; kinase still bound, per cent of control (RIPK2 (human)): 2.3%; kinase still bound, per cent of control (RPS6KA6 KD2 (human)): 100%; kinase still bound, per cent of control (SRC (human)): 0.15%; kinase still bound, per cent of control (SRMS (human)): 0%; kinase still bound, per cent of control (STK32B (human)): 100%; kinase still bound, per cent of control (STK38L (human)): 100%; kinase still bound, per cent of control (TGFBR1 (human)): 100%; kinase still bound, per cent of control (TLK2 (human)): 100%; kinase still bound, per cent of control (TNIK (human)): 12%; kinase still bound, per cent of control (TNNI3K (human)): 0.6%
100 | 100 | 100 | 100 | 100 | 100 | 100 | 100 | 100 | 0.35 | 100 | 100 | 100 | 100 | 100 | 100 | 3.2 | 29 | 18 | 100 | COc1cc(C)c(Sc2cnc(NC(=O)c3ccc(CNC(C)C(C)C)cc3)s2)cc1C(=O)N1CCN(C(C)=O)CC1 (centres undefined) | kinase still bound, per cent of control (PIK3CD (human)): 100%; kinase still bound, per cent of control (PRKD1 (human)): 100%; kinase still bound, per cent of control (RIPK2 (human)): 100%; kinase still bound, per cent of control (RPS6KA6 KD2 (human)): 100%; kinase still bound, per cent of control (SRC (human)): 1.2%; kinase still bound, per cent of control (SRMS (human)): 100%; kinase still bound, per cent of control (STK32B (human)): 100%; kinase still bound, per cent of control (STK38L (human)): 7%; kinase still bound, per cent of control (TAOK3 (human)): 3.6%; kinase still bound, per cent of control (TGFBR1 (human)): 100%; kinase still bound, per cent of control (TLK2 (human)): 100%; kinase still bound, per cent of control (TNIK (human)): 100%; kinase still bound, per cent of control (TNNI3K (human)): 100%
